In the test the target is interaction between p53 and MDM2 proteins (Homo sapiens, UniProt Q00987). The test can be described thus: HTRF assay of inhibition of the p53-MDM2 interaction (GST-MDM2 / biotinylated p53 peptide). Type of test: binding. Conditions: recombinant GST-tagged MDM2 and biotinylated p53 peptide, bsa:0.02%. As to the method:
The ability of the compounds to inhibit the interaction between p53 and MDM2 proteins was measured by an HTRF (homogeneous time-resolved fluorescence) assay in which recombinant GST-tagged MDM2 binds to a peptide that resembles the MDM2-interacting region of p53. Binding of GST-MDM2 protein and p53-peptide (biotinylated on its N-terminal end) is registered by the FRET (fluorescence resonance energy transfer) between Europium (Eu)-labeled anti-GST antibody and streptavidin-conjugated Allophycocyanin (APC).
Add 10 uL diluted compounds (1:5 dilution in reaction buffer) to each well, mix by shaking. Add 20 uL biotinylated p53 peptide (180 nM working solution) in reaction buffer to each well and mix on shaker. Incubate at 37° C. for 1 h. Add 20 uL streptavidin-APC and Eu-anti-GST antibody mixture (6 nM Eu-anti-GST and 60 nM streptavidin-APC working solution) in TBS buffer with 0.2% BSA, shake at room temperature for 30 minutes and read using a TRF-capable plate reader at
665 and 615 nm (Victor 5, Perkin ElmerWallac). If not specified, the reagents were purchased from Sigma Chemical Co.
Chain of interaction between p53 and MDM2 proteins (Q00987 whole entry): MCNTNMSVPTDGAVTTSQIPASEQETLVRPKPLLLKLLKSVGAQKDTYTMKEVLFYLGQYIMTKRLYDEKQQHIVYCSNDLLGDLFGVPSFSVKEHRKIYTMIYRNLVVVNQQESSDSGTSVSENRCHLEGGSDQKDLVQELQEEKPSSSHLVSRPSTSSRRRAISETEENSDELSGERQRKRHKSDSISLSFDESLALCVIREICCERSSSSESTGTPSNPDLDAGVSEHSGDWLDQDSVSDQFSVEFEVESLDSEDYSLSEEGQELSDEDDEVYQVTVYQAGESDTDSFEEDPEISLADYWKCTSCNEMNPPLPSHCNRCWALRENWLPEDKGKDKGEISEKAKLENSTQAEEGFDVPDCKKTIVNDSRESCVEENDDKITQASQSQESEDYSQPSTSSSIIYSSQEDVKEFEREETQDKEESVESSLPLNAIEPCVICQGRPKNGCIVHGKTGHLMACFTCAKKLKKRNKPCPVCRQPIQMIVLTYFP
For the molecule `COC(=O)c1ccc(NC(=O)[C@@H]2N[C@@H](CC(C)(C)C)[C@@]3(C(=O)Nc4cc(Cl)ccc43)[C@H]2c2cccc(Cl)c2)c(OC)c1` (racemic) [Example 107, rac-4-{[(2′S,3′R,4′R,5′R)-6-chloro-4′-(3-chloro-phenyl)-2′-(2,2-dimethyl-propyl)-2-oxo-1,2-dihydro-spiro[indole-3,3′-pyrrolidine]-5′-carbonyl]-amino}-3-methoxy-benzoic acid methyl ester], the IC50 was found to be 17 nM.

Regarding `COC(=O)c1ccc(NC(=O)[C@@H]2N[C@@H](CC(C)(C)C)[C@@]3(C(=O)Nc4cc(Cl)ccc43)[C@H]2c2cccc(Cl)c2F)c(OC)c1` (racemic) [Example 109, rac-4-{[(2′S,3′R,4′S,5′R)-6-chloro-4′-(3-chloro-2-fluoro-phenyl)-2′-(2,2-dimethyl-propyl)-2-oxo-1,2-dihydro-spiro[indole-3,3′-pyrrolidine]-5′-carbonyl]amino}-3-methoxy-benzoic acid methyl ester], the half-maximal inhibitory concentration (IC50) worked out at 11 nM.

As for `CC(C)(C)C[C@@H]1N[C@@H](C(=O)Nc2ccc(S(C)(=O)=O)cc2F)[C@H](c2cccc(Cl)c2F)[C@]12C(=O)Nc1cc(Cl)ccc12` (racemic) [Example 37, rac-(2′S,3′R,4′S,5′R)-6-chloro-4′-(3-chloro-2-fluoro-phenyl)-2′-(2,2-dimethyl-propyl)-2-oxo-1,2-dihydro-spiro[indole-3,3′-pyrrolidine]-5′-carboxylic acid (2-fluoro-4-methanesulfonyl-phenyl)-amide], the IC50 was above 10000 nM.

Turning to `CC(C)(C)C[C@@H]1N[C@@H](C(=O)Nc2ccc(C#N)cc2)[C@H](c2cccc(Br)c2F)[C@]12C(=O)Nc1cc(Cl)ccc12` (racemic) [Example 98, rac-(2′S,3′R,4′S,5′R)-4′-(3-bromo-2-fluoro-phenyl)-6-chloro-2′-(2,2-dimethyl-propyl)-2-oxo-1,2-dihydro-spiro[indole-3,3′-pyrrolidine]-5′-carboxylic acid (4-cyano-phenyl)-amide], the IC50 came out at 18 nM.

With `COC(=O)c1ccc(NC(=O)[C@@H]2N[C@@H](CC(C)(C)C)[C@@]3(C(=O)Nc4cc(Cl)ccc43)[C@H]2c2ccc(F)c(Cl)c2)c(OC)c1` (racemic) [Example 126, rac-4-{[(2′S,3′R,4′R,5′R)-6-chloro-4′-(3-chloro-4-fluoro-phenyl)-2′-(2,2-dimethyl-propyl)-2-oxo-1,2-dihydro-spiro[indole-3,3′-pyrrolidine]-5′-carbonyl]amino}-3-methoxy-benzoic acid methyl ester], the IC50 is 29 nM.

For `CC(C)(C)C[C@@H]1N[C@@H](C(=O)Nc2ccc(C(=O)CO)cc2)[C@H](c2cccc(Cl)c2F)[C@]12C(=O)Nc1cc(Cl)ccc12` (racemic) [Example 42, rac-(2′S,3′R,4′S,5′R)-6-chloro-4′-(3-chloro-2-fluoro-phenyl)-2′-(2,2-dimethyl-propyl)-2-oxo-1,2-dihydro-spiro[indole-3,3′-pyrrolidine]-5′-carboxylic acid [4-(2-hydroxy-acetyl)-phenyl]-amide], the IC50 is 14 nM.

On to `CC(C)(C)C[C@@H]1N[C@@H](C(=O)Nc2ccc(C(N)=O)cc2F)[C@H](c2cccc(Cl)c2F)[C@]12C(=O)Nc1cc(Cl)ccc12` [Example 54, chiral (2′S,3′R,4′S,5′R)-6-chloro-4′-(3-chloro-2-fluoro-phenyl)-2′-(2,2-dimethyl-propyl)-2-oxo-1,2-dihydro-spiro[indole-3,3′-pyrrolidine]-5′-carboxylic acid (4-carbamoyl-2-fluoro-phenyl)-amide], for which the half-maximal inhibitory concentration (IC50) came to 7 nM.

Turning to `COc1cc(C(=O)NC#N)ccc1NC(=O)[C@@H]1N[C@@H](CC(C)(C)C)[C@@]2(C(=O)Nc3cc(Cl)ccc32)[C@H]1c1cccc(Cl)c1F` [Example 223, chiral (2′S,3′R,4′S,5′R)-6-chloro-4′-(3-chloro-2-fluorophenyl)-N-(4-(cyanocarbamoyl)-2-methoxyphenyl)-2′-(2,2-dimethyl-propyl)-2-oxospiro[indoline-3,3′-pyrrolidine]-5′-carboxamide], the IC50 was 7 nM.

As to `COc1cc(N2CC(C)OC(C)C2)ccc1NC(=O)[C@@H]1N[C@@H](CC(C)(C)C)[C@@]2(C(=O)Nc3cc(Cl)ccc32)[C@H]1c1cccc(Cl)c1F` (mixture of isomers) [Example 144, rac-(2′S,3′R,4′S,5′R)-6-chloro-4′-(3-chloro-2-fluoro-phenyl)-2′-(2,2-dimethyl-propyl)-2-oxo-1,2-dihydro-spiro[indole-3,3′-pyrrolidine]-5′-carboxylic acid [4-(2,6-dimethyl-morpholin-4-yl)-2-methoxy-phenyl]-amide], the 50% inhibitory concentration (IC50) was 19 nM.

In the case of `CC(C)(C)C[C@@H]1N[C@@H](C(=O)Nc2ccc(C(N)=O)cc2)[C@H](c2cccc(Cl)c2F)[C@]12C(=O)Nc1cc(Cl)ccc12` [Example 9, chiral (2′S,3′R,4′S,5′R)-6-chloro-4′-(3-chloro-2-fluoro-phenyl)-2′-(2,2-dimethyl-propyl)-2-oxo-1,2-dihydro-spiro[indole-3,3′-pyrrolidine]-5′-carboxylic acid (4-carbamoyl-phenyl)-amide], the 50% inhibitory concentration (IC50) is 4 nM.

As to `CC(C)(C)C[C@@H]1N[C@@H](C(=O)Nc2cccc(C(=O)O)c2)[C@H](c2cccc(Cl)c2F)[C@]12C(=O)Nc1cc(Cl)ccc12` (racemic) [Example 32, rac-3-{[(2′S,3′R,4′S,5′R)-6-chloro-4′-(3-chloro-2-fluoro-phenyl)-2′-(2,2-dimethyl-propyl)-2-oxo-1,2-dihydro-spiro[indole-3,3′-pyrrolidine]-5′-carbonyl]-amino}-benzoic acid], the IC50 was determined as 17 nM.

In the case of `COc1cc(OCCCS(C)(=O)=O)ccc1NC(=O)[C@@H]1N[C@@H](CC(C)(C)C)[C@@]2(C(=O)Nc3cc(Cl)ccc32)[C@H]1c1cccc(Cl)c1F` [Example 181, chiral (2′S,3′R,4′S,5′R)-6-chloro-4′-(3-chloro-2-fluoro-phenyl)-2′-(2,2-dimethyl-propyl)-2-oxo-1,2-dihydro-spiro[indole-3,3′-pyrrolidine]-5′-carboxylic acid [4-(3-methanesulfonyl-propoxy)-2-methoxy-phenyl]-amide], the IC50 is 6 nM.

For `CC(C)(C)C[C@@H]1N[C@@H](C(=O)Nc2ccc(NCC(=O)O)cc2)[C@H](c2cccc(Cl)c2F)[C@]12C(=O)Nc1cc(Cl)ccc12` (racemic) [Example 218, rac-(4-{[(2′S,3′R,4′S,5′R)-6-chloro-4′-(3-chloro-2-fluoro-phenyl)-2′-(2,2-dimethyl-propyl)-2-oxo-1,2-dihydro-spiro[indole-3,3′-pyrrolidine]-5′-carbonyl]amino}-phenylamino)-acetic acid], the IC50 was 16 nM.

Regarding `CC(C)(C)C[C@@H]1N[C@@H](C(=O)Nc2ccc(C(N)=O)cc2F)[C@H](c2cccc(Cl)c2F)[C@]12C(=O)Nc1cc(Cl)ccc12` (racemic) [Example 53, rac-(2′S,3′R,4′S,5′R)-6-chloro-4′-(3-chloro-2-fluoro-phenyl)-2′-(2,2-dimethyl-propyl)-2-oxo-1,2-dihydro-spiro[indole-3,3′-pyrrolidine]-5′-carboxylic acid (4-carbamoyl-2-fluoro-phenyl)-amide], the IC50 came to 11 nM.

Regarding `COc1cc(C#N)ccc1NC(=O)[C@@H]1N[C@@H](CC(C)(C)C)[C@@]2(C(=O)Nc3cc(Br)ccc32)[C@H]1c1cccc(Cl)c1F` (racemic) [Example 118, rac-(2′S,3′R,4′S,5′R)-6-bromo-4′-(3-chloro-2-fluoro-phenyl)-2′-(2,2-dimethyl-propyl)-2-oxo-1,2-dihydro-spiro[indole-3,3′-pyrrolidine]-5′-carboxylic acid (4-cyano-2-methoxy-phenyl)-amide], the IC50 was determined as 11 nM.

In the case of `CCCCOc1cc(C(=O)O)ccc1NC(=O)[C@@H]1N[C@@H](CC(C)(C)C)[C@@]2(C(=O)Nc3cc(Cl)ccc32)[C@H]1c1cccc(Cl)c1F` (racemic) [Example 151, rac-3-butoxy-4-{[(2′S,3′R,4′S,5′R)-6-chloro-4′-(3-chloro-2-fluoro-phenyl)-2′-(2,2-dimethyl-propyl)-2-oxo-1,2-dihydro-spiro[indole-3,3′-pyrrolidine]-5′-carbonyl]amino}-benzoic acid], the IC50 came to 13 nM.

In the case of `COc1cc(C#N)ccc1NC(=O)[C@@H]1N[C@@H](CC(C)(C)C)[C@@]2(C(=O)Nc3cc(Cl)ccc32)[C@H]1c1cccc(Cl)c1F` (racemic) [Example 58, rac-(2′S,3′R,4′S,5′R)-6-chloro-4′-(3-chloro-2-fluoro-phenyl)-2′-(2,2-dimethyl-propyl)-2-oxo-1,2-dihydro-spiro[indole-3,3′-pyrrolidine]-5′-carboxylic acid (4-cyano-2-methoxy-phenyl)-amide], the half-maximal inhibitory concentration (IC50) was determined as 23 nM.

Take `CC(C)(C)C[C@@H]1N[C@@H](C(=O)Nc2ccc(I)cc2F)[C@H](c2cccc(Cl)c2F)[C@]12C(=O)Nc1cc(Cl)ccc12` (racemic) [Example 51, rac-(2′S,3′R,4′S,5′R)-6-chloro-4′-(3-chloro-2-fluoro-phenyl)-2′-(2,2-dimethyl-propyl)-2-oxo-1,2-dihydro-spiro[indole-3,3′-pyrrolidine]-5′-carboxylic acid (2-fluoro-4-iodo-phenyl)-amide]: the concentration for half-maximal inhibition (IC50) came to 20 nM.

Consider `COc1cc(C(N)=O)ccc1NC(=O)[C@@H]1N[C@@H](CC(C)(C)C)[C@@]2(C(=O)Nc3cc(Cl)cc(F)c32)[C@H]1c1cccc(Cl)c1F` (racemic) [Example 76, rac-(2′S,3′R,4′S,5′R)-6-chloro-4′-(3-chloro-2-fluoro-phenyl)-2′-(2,2-dimethyl-propyl)-4-fluoro-2-oxo-1,2-dihydro-spiro[indole-3,3′-pyrrolidine]-5′-carboxylic acid (4-carbamoyl-2-methoxy-phenyl)-amide], for which the 50% inhibitory concentration (IC50) stood at 11 nM.

For the origin of these results see patent publication US8088815B2, “Spiroindolinone pyrrolidines” (Hoffman-La Roche Inc., priority 2009, dated 2012).
